Experiment [1] is described as follows: Evaluation for the inhibition of kappa opioid binding to bovine striatal membranes by the affinity ligand 1 nM [3H]U-69593.
Experiment [2] in a line: Evaluation for the inhibition of delta opioid binding to bovine striatal membranes by the affinity ligand 0.2 nM [3H]p-Cl-DPDPE.

As to `CN1CC[C@]23c4c5ccc(O)c4O[C@H]2C(=O)CC[C@@]3(NC(=O)CS)C1C5` [1N-[10-hydroxy-4-methyl-14-oxo-12-oxa-4-azapentacyclo[9.6.1.01,13.05,17.07,18]octadeca-7,9,11(18)-trien-17-yl]-2-sulfanylacetamide], the IC50 in experiment [1] came out at 0.041 µM; in experiment [2], 0.012 µM.

Usually IC50 stands for the concentration that gives 50% inhibition.

For the origin of these results see BindingDB's records for doi:10.1021/jm00037a008 (Institute, 1994).
